From article doi:10.1101/2025.08.21.671483v1, “In vitro and in vivo activity profiles of broad-spectrum bacterial ATP synthase inhibitors” (biorxiv, 2025) come the findings set out here.

Where two headings read alike, the source gives them in different places.

One test concerns T1, E. coli MC4100 acrAB.
T1 construct: MC4100 acrAB efflux-deficient
Nature of the test: microbe, parasite or virus in culture. Conditions: Escherichia coli, MC4100ACRAB, read-out: MIC.

The next test relates to T2, E. coli ATCC 25922.
T2 construct: ATCC 25922
Briefly: microbe, parasite or virus in culture. The following applies: Escherichia coli. Also on record: species or system bacteria; CLSI broth microdilution MIC, no visible growth.

The next test concerns T3, Escherichia coli ec305.
T3 construct: ec305
Briefly: microbe, parasite or virus in culture. Also on record: species or system bacteria; CLSI broth microdilution MIC, no visible growth.

Test [1] has as its system T4, Escherichia coli ATCC BAA2471.
T4 construct: ATCC BAA-2471
Nature of the test: microbe, parasite or virus in culture. Also on record: species or system bacteria; CLSI broth microdilution MIC, no visible growth.

In the next test the test system is T5, Escherichia coli ec302.
T5 construct: ec302
Briefly: microbe, parasite or virus in culture. Also on record: species or system bacteria; CLSI broth microdilution MIC, no visible growth.

Test [2] deals with T6, Escherichia coli 95882 CW-2011.
T6 construct: 95882 CW-2011
Nature of the test: microbe, parasite or virus in culture. Also on record: species or system bacteria; CLSI broth microdilution MIC, no visible growth.

Test [3] concerns T7, Escherichia coli 70122 CW-2007.
T7 construct: 70122 CW-2007
Nature of the test: microbe, parasite or virus in culture. Also on record: species or system bacteria; CLSI broth microdilution MIC, no visible growth.

The next test relates to T8, Escherichia coli ec308.
T8 construct: ec308
Briefly: microbe, parasite or virus in culture. Also on record: species or system bacteria; CLSI broth microdilution MIC, no visible growth.

Test [4] deals with T9, Escherichia coli ATCC 35218.
T9 construct: ATCC 35218
Nature of the test: microbe, parasite or virus in culture. Also on record: species or system bacteria; CLSI broth microdilution MIC, no visible growth.

The test system of another test is T10, Escherichia coli ec310.
T10 construct: ec310
Nature of the test: microbe, parasite or virus in culture. Also on record: species or system bacteria; CLSI broth microdilution MIC, no visible growth.

A further test deals with T11, Escherichia coli ec309.
T11 construct: ec309
Briefly: microbe, parasite or virus in culture. Also on record: species or system bacteria; CLSI broth microdilution MIC, no visible growth.

For the next test, the target named is T12, S. aureus ATP synthase (Staphylococcus aureus, UniProt Q99SF0).
T12 construct: gene atpE
Nature of the test: ATP production by membrane vesicles, luciferase luminescence. Format: biochemical. Conditions: […] NADH, 1 mM ADP, 10 mM potassium phosphate; 30 min preincubation, 60 min reaction. The source says: ATP production by membrane vesicles, luciferase luminescence on S. aureus ATP synthase

A further test has as its system T13, E. coli MC4100 WT.
T13 construct: MC4100 (ATCC 35695)
Nature of the test: microbe, parasite or virus in culture. Also on record: species or system bacteria; CLSI broth microdilution MIC, no visible growth. The following applies: Escherichia coli, MC4100WT.

In test [5] the test system is T14, S. aureus ATCC 29740 (Newbould).
T14 construct: ATCC 29740 (Newbould)
Nature of the test: microbe, parasite or virus in culture. Also on record: species or system bacteria; CLSI broth microdilution MIC, no visible growth. Conditions: Staphylococcus aureus.

The target in test [6] is T15, E. coli ATP synthase (Escherichia coli, UniProt P68699).
T15 construct: gene atpE
Briefly: ATP production by membrane vesicles, luciferase luminescence. Format: biochemical. Conditions: […] NADH, 1 mM ADP, 10 mM potassium phosphate; 30 min preincubation, 60 min reaction. The source says:
ATP production by membrane vesicles, luciferase luminescence on E. coli ATP synthase

Test [7] has as its system T16, Escherichia coli ATCC 25922.
T16 construct: ATCC 25922
Briefly: microbe, parasite or virus in culture.

A further test deals with S. aureus ATCC 29740hemB. Nature of the test: microbe, parasite or virus in culture. Conditions: Staphylococcus aureus, ATCC29740HEMB, read-out: MIC.
The next test concerns T17, E. coli MC4100 lptD4213.
T17 construct: MC4100 lptD4213 membrane-compromised
Briefly: microbe, parasite or virus in culture. Conditions: Escherichia coli, MC4100LPTD4213, read-out: MIC.

Test [8] deals with T15, E. coli ATP synthase. Briefly: ATP synthesis kinetics, membrane vesicles, luciferase luminescence. Format: biochemical. The following applies: ADP varied 0.05-1 mM, NADH-driven, pre-exposure 0-10 min.
In test [9] the test system is T18, Citrobacterfreundii ATCC 8090.
T18 construct: ATCC 8090
Nature of the test: organism not typed. Also on record: species or system bacteria; CLSI broth microdilution MIC, no visible growth. The following applies: read-out: Table 5 TM-184 MIC.

By IC50 is commonly meant the point on the concentration scale where inhibition reaches its midpoint. Read a low IC50 as higher potency.

With `C[C@H]1CC[C@]2(NC1)O[C@H]1C[C@H]3[C@@H]4CC[C@H]5CC(NCCN)CC[C@]5(C)[C@H]4CC[C@]3(C)[C@H]1[C@@H]2C` (mixture of isomers) [TM-02], the MIC came out at 8 µg/mL in the test on E. coli MC4100 acrAB; 32 µg/mL in the test on E. coli ATCC 25922 (ATCC25922, read-out: TM-02 MIC); 4 µg/mL in the test with Escherichia coli ec305 (EC305, read-out: Table 3 TM-02 MIC); 32 µg/mL in [1] (ATCCBAA2471, read-out: Table 3 TM-02 MIC); 32 µg/mL in the test on Escherichia coli ec302 (EC302, read-out: Table 3 TM-02 MIC); 32 µg/mL in test [2] (95882CW2011, read-out: Table 3 TM-02 MIC). Also, the MIC in test [3] (70122CW2007, read-out: Table 3 TM-02 MIC) was found to be 16 µg/mL; in the test on Escherichia coli ec308 (EC308, read-out: Table 3 TM-02 MIC), 8 µg/mL; in [4] (ATCC35218, read-out: Table 3 TM-02 MIC), 32 µg/mL; with Escherichia coli ec310 (EC310, read-out: Table 3 TM-02 MIC) it was 32 µg/mL; in the test on Escherichia coli ec309 (EC309, read-out: Table 3 TM-02 MIC) it was 32 µg/mL; with E. coli MC4100 WT (read-out: TM-02 MIC), 16 µg/mL. Also, the MIC in [5] (ATCC29740, read-out: TM-02 MIC) is 4 µg/mL; in test [7] (ATCC25922, read-out: MIC (ug/ml) first column), 32 µg/mL; with S. aureus ATCC 29740hemB it was at most 0.25 µg/mL; in the test with E. coli MC4100 lptD4213, 0.5 µg/mL. The half-maximal inhibitory concentration (IC50) worked out at 0.51 ± 0.17 µM against S. aureus ATP synthase and 1.49 ± 0.28 µM against E. coli ATP synthase [6].
In the case of `C[C@H]1CC[C@]2(NC1)O[C@H]1C[C@H]3[C@@H]4CC[C@H]5CC(NC[C@H](N)Cc6ccc(I)cc6)CC[C@]5(C)[C@H]4CC[C@]3(C)[C@H]1[C@@H]2C` (mixture of isomers) [TM-184], the MIC in the test on E. coli MC4100 acrAB came out at 4 µg/mL; in the test with E. coli ATCC 25922 (ATCC25922, read-out: TM-184 MIC) it was 4 µg/mL; in the test on Escherichia coli ec305 (EC305, read-out: Table 3 TM-184 MIC), 2 µg/mL; in [1] (ATCCBAA2471, read-out: Table 3 TM-184 MIC), 16 µg/mL; with Escherichia coli ec302 (EC302, read-out: Table 3 TM-184 MIC) it was 16 µg/mL; in test [2] (95882CW2011, read-out: Table 3 TM-184 MIC) it was 16 µg/mL. For the same compound, the MIC in [3] (70122CW2007, read-out: Table 3 TM-184 MIC) was 16 µg/mL; in the test with Escherichia coli ec308 (EC308, read-out: Table 3 TM-184 MIC), 4 µg/mL; in test [4] (ATCC35218, read-out: Table 3 TM-184 MIC), 16 µg/mL; in the test on Escherichia coli ec310 (EC310, read-out: Table 3 TM-184 MIC), 16 µg/mL; in the test with Escherichia coli ec309 (EC309, read-out: Table 3 TM-184 MIC) it was 16 µg/mL; in the test on E. coli MC4100 WT (read-out: TM-184 MIC), 8 µg/mL. Moreover, the MIC in test [5] (ATCC29740, read-out: TM-184 MIC) was 2 µg/mL; in test [7] (ATCC25922, read-out: MIC (ug/ml) second column), 4 µg/mL; in the test on S. aureus ATCC 29740hemB, at most 0.25 µg/mL; in test [9], 8 µg/mL; in the test with E. coli MC4100 lptD4213 it was 2 µg/mL. In addition, at E. coli ATP synthase [8], the Ki was in the range of 0.8 to 1.3 µM. Also, the results for the IC50 against S. aureus ATP synthase and on E. coli ATP synthase [6] were 0.7 ± 0.33 µM and 1.57 ± 0.17 µM, respectively.
The compound `O=[N+]([O-])c1ccc(Cl)c2nonc12` [4-chloro-7-nitrobenzofurazan, reference compound] showed a Ki on E. coli ATP synthase [8] (positive control, covalent) of 1.8 µM.
